Data as given in a melting point compilation (Tetko et al.; mined from patent text by program, amines drawn as free bases though some values may be those of a salt).

Row | SMILES | melting point [°C]
1 | COc1cccc(CNC(=O)c2nc3ccc(-c4nnn[nH]4)cc3c(=O)[nH]2)c1 | 258 to 260
2 | O=Cc1cnc2n1CCc1ccccc1C2=C1CCN(CCc2ccc(OCc3ccc4ccccc4n3)cc2)CC1 | 194
3 | Cc1c(Br)c(O)c(Br)c(C)c1-c1c(C)c(Br)c(O)c(Br)c1C | 242 to 245
4 | CS(=O)(=O)c1ccc(-c2n[nH]c(C(F)(F)F)c2-c2ccc(F)cc2)cc1 | 219 to 220
5 | N#Cc1ccc(CCO)nc1 | 92 to 93
6 | CCOC(=O)c1cnc(Nc2cccc(C(F)(F)F)c2)[nH]c1=O | 229 to 230
7 | C/C(=N\OCCOc1ccc(C(=O)O)c(Cl)c1)c1ccc(C(C)(C)C)cc1 | 143 to 144
8 | CCCCNc1nc2cc(C)nn2c2c1cnc1c2cnn1CC | 160 to 162
9 | Cc1ccc(Cl)c(C(=O)c2ccc(Cl)cc2)c1 | 85 to 90
10 | CC(=O)OC1CSC(Oc2cccc(-c3cccnc3)n2)C(OC(C)=O)C1OC(C)=O (stereo unspecified) | 141
11 | OCC(CO)(c1ccccc1)c1ccccc1 | 102 to 104
12 | CCOC(=O)c1cnn(-c2ccc(Cl)cc2)c1N | 150 to 156
13 | Cc1c(C(=O)NN2CCCCC2)nn(-c2ccc(Cl)cc2Cl)c1-c1ccc(OS(=O)(=O)CCC(F)(F)F)cc1 | 160
14 | COc1ccc(C2(c3cccc(-c4ccncc4)c3)N=C(N)N(C)C2=O)cc1C (stereo unspecified) | 175
15 | CC(C)C=CC1(C(F)(F)F)OCC(=O)Nc2ccc(F)cc21 (stereo unspecified) | 145 to 156
16 | CN(C)C(=C[N+](=O)[O-])NCc1cnc(Cl)s1 | 101 to 102
17 | Cc1cccc(-c2ccc3c(c2)c(CC(=O)O)cn3Cc2ccc(C(C)(C)C)cc2)c1 | 91 to 92
18 | COC(=O)[C@@H]1CSC(=O)N1CC(C)(C)SCc1ccc(OC)cc1 | 51 to 54
19 | O=C(CCOCc1ccccc1)Nc1ccc(C(=O)Nc2ccccc2[N+](=O)[O-])cc1 | 140
20 | O=C1N(N2CCOCC2)c2ccccc2C1(Cc1ccccc1)c1ccccc1 (stereo unspecified) | 159 to 161
21 | CCCCOC(=O)COc1ccc(C(=O)Nc2cc(C)ccc2Sc2ccccc2-c2nnn[nH]2)cc1 | 146 to 148
22 | COc1cccc(F)c1-n1nnc2cc(C(C)(C)C)c(OCc3ncnn3C)nc21 | 116 to 118
23 | CCOC(=O)c1nc(-c2ccc(Cl)cc2Cl)n(-c2ccc(Cl)cc2)c1CF | 124 to 125
24 | O=[N+]([O-])c1cccc2c(C(F)(F)F)cccc12 | 107 to 108
25 | CC(C)(NC(=O)c1cc2c(n(CC3CCCCC3)c1=O)CCCCCC2)C(=O)O | 177 to 180
26 | O=C(NCCOc1ccc(CC(Oc2ccccc2)C(=O)O)cc1Cl)c1ccc(-c2ccccn2)cc1 (stereo unspecified) | 59 to 61

Row | SMILES | melting point [°C]
27 | CCCN1C(=O)N(C2CCN(Cc3cccc(CO)c3)CC2)C(c2ccccc2)c2ccccc21 (stereo unspecified) | 108 to 112
28 | COc1ccc(-c2cc(Cl)on2)cc1 | 82 to 83
29 | CC(C)(C)OC(=O)CN(C(=O)CN1C(=O)c2ccccc2C1=O)c1ccccc1Cc1ccccc1 | 190
30 | COc1ccc(CCC(=O)O)cc1OCCCc1cn(-c2ccc(C(F)(F)F)cn2)nc1C(C)C | 93 to 94
31 | Cc1cc(-c2c(F)cc3c(=O)c(C(=O)O)cn4c3c2S(=O)CC4C)cc(C)n1 (stereo unspecified) | 294 to 295
32 | CNC1=NN(C(=O)C(C)(C)C)C(C)S1 (stereo unspecified) | 102 to 103
33 | CCN(CC)C(=O)n1cnc(S(=O)(=O)CC2CCC2)n1 | 113 to 116
34 | Cc1nc2c(F)cccc2c(Cl)c1CCCl | 101 to 103
35 | Fc1ccc2c(C3CCN(CC4=Cc5ccccc54)CC3)noc2c1 | 78 to 82
36 | O=C(OCc1ccccc1)[C@H](Cc1ccc(-c2ccccc2)cc1)NCP(=O)(Oc1ccccc1)Oc1ccccc1 | 85 to 86
37 | Cc1ccccc1Nc1nc(NCc2ccccc2)nc2ccccc12 | 127 to 130
38 | O=C(NCCCCCn1cncn1)c1ccc(Cl)s1 | 79 to 81
39 | Clc1ccc(C(Br)C(Br)c2ncon2)cc1 (stereo unspecified) | 141 to 142
40 | O=C1c2cc(Br)ccc2CCc2ccc(S(=O)(=O)F)cc21 | 148 to 151
41 | CCOC(=O)c1ccc(O)nc1 | 143 to 144
42 | COC(=O)NS(=O)(=O)c1ncccc1C(F)(F)F | 128 to 129
43 | O=C(Nc1ccc(OC(F)(F)F)cc1)NC1CCNCC1 | 169 to 173
44 | CC(C)=C1C(=O)N(c2ccc(O)cc2)C(=O)/C1=C(/c1cc(C)sc1C)C(C)C | 136 to 138
45 | Oc1ccc(-c2ccc(OC(F)(F)F)cc2)cc1 | 140
46 | CN(C)C(=O)n1cc(C(=O)C2CSC(c3cccnc3)N2)c2ccc(Oc3ccc(F)cc3)cc21 (stereo unspecified) | 72 to 75
47 | COc1ccc(CCOc2ccc(NC(=O)c3cc(F)cc(N4CCCCC4)c3)c3ccccc23)cc1OC | 158 to 160
48 | CCC(C)(C)c1ccc(Oc2ccncc2NC(=O)c2ccccc2)c(C(C)(C)CC)c1 | 253
49 | Cc1nn(-c2ccc(C(F)(F)F)cn2)cc1COc1cc(C=O)n(C)n1 | 130 to 131
50 | CN1C(=O)CCC1(O)c1ccc(Cl)c(S(=O)(=O)Cl)c1 (stereo unspecified) | 112 to 114
51 | N#Cc1cnn2c1N(C(=O)CCl)CC=C2c1cccc(Cl)c1 | 196 to 198
52 | CCCCN=c1cc2n(c(=O)n1C)CCc1cc(OC)c(OC)cc1-2 | 120 to 121

Row | SMILES | melting point [°C]
53 | O=C(Cc1cccc(Br)c1)Nc1cccc(C(=O)NO)c1 | 184 to 186
54 | CCOC(=O)c1cn(CCc2cccc(F)c2)c2cc(C3CC3)nn2c1=O | 160 to 165
55 | O=C1CCC(O)(c2ccccc2Cc2ccccc2)CC1 | 138 to 140
56 | O=C1Nc2cccnc2N(CC#CCN2CCCCC2)c2ccccc21 | 198
57 | COCc1cc(O)n2nc(SCc3ccccc3)nc2n1 | 213
58 | O=C1NCCNN1c1ccc(Cc2ccc(Cl)cc2)c(Cl)c1 | 157 to 158
59 | N#Cc1c(-c2cccc(F)c2)c(Cl)n2c1CNCC2 | 104 to 106
60 | O=[N+]([O-])c1ccc(Oc2cccc3ccccc23)nc1 | 87.3 to 89.3
61 | c1csc(-c2nc(CCCOc3ccc(CCCn4ccnc4)cc3)co2)c1 | 99 to 100
62 | Cc1ccc(C(=O)C(=O)c2ccncc2)cc1 | 65
63 | NS(=O)(=O)c1cc(CCNC(=O)/C=C/c2cccs2)ccc1-c1ccco1 | 165 to 166
64 | COCc1ccc(Oc2cncc3sc(C(N)=O)cc23)cc1 | 168
65 | CCOC(=O)c1cn(NCC(=O)OC(C)(C)C)c2c(F)c(F)c(F)cc2c1=O | 99.5 to 102
66 | CCOC(=O)c1ccc(NC(=O)CCn2cnc3c(=O)[nH]cnc32)cc1 | 265 to 269
67 | ClCCCn1c2ccccc2c2cc(-c3nc(C4CC4)no3)ncc21 | 165 to 169
68 | CCC(C)NC(=O)c1ncc(C)cc1C(N)=O (stereo unspecified) | 119 to 123
69 | Cc1cc(-c2ccc(C(F)(F)F)cc2)nc(-n2cnc(-c3ccc(S(N)(=O)=O)s3)c2)n1 | 277
70 | COc1cc(O)c2c(c1)OC(C(C)(C)C=O)CC2=O (stereo unspecified) | 93 to 94
71 | N#Cc1cc(C=O)ccc1-n1cncn1 | 134 to 141
72 | CCOc1c(OC)cc([N+](=O)[O-])c2ncccc12 | 88 to 95
73 | CN(C(=O)Nc1ccsc1)c1cccc2cc(-c3nccs3)[nH]c12 | 266
74 | CC(C)COc1ccccc1Nc1ncc(C(=O)O)c(=O)[nH]1 | 213 to 215
75 | CCN(CC)c1ccc2cc(C(=O)OCCO)c(=O)oc2c1 | 106 to 108
76 | CCCC[C@H](NC(=O)[C@@H](NC(=O)OCc1ccccc1)c1ccccc1)C(=O)CSCc1ccco1 | 144 to 146
77 | N#Cc1cc(O)c(O)c(C#N)c1CCCCC(=O)O | 210 to 215
78 | C=Cn1cc(C(=O)OCC)c(=O)c2cc(F)c(N3CCNCC3)cc21 | 208 to 210

Row | SMILES | melting point [°C]
79 | CCC(=O)N1N=C(c2ccc([N+](=O)[O-])cc2)c2cc(Br)ccc2CC1C (stereo unspecified) | 178 to 180
80 | Cc1cc(C2=C(/C=C/[C@H]3C[C@H](O)CC(=O)O3)C(C)(C)CC3(C2)SCCCS3)ccc1F (relative stereo) | 136 to 138
81 | N#Cc1cccc(-c2nc(=O)c3ccccc3s2)c1 | 200
82 | NC(=O)c1sc2nccc(N3CCN(C/C=C/c4ccccc4)CC3)c2c1N | 225 to 227
83 | O=C(Cn1c(-c2ccccc2)ccc(NC(=O)OCc2ccc(C(=O)O)cc2)c1=O)NC(Cc1ccccc1)C(=O)C(F)(F)F (stereo unspecified) | 214 to 216
84 | COc1cccc(OC)c1C(=O)Nc1oncc1-c1ccc(C(F)(F)F)cc1 | 199 to 201
85 | CC(C)(C)C(NC(=O)c1ccc(Cl)cc1)Nc1c(Nc2ccc(F)cc2)c(=O)c1=O (stereo unspecified) | 247 to 249
86 | O=C1c2c(Cl)cccc2-n2cnc(/C=C\Cl)c2[C@@H]2CCN12 | 189 to 191
87 | O=c1[nH]c2ccccc2n1CCN1CCNCC1 | 123
88 | O=C(O)c1cn(-c2cc(F)cc(C(F)(F)F)c2)cn1 | > 250
89 | COc1ccc2c(c1)S(=O)(=O)NC(C)N2 (stereo unspecified) | 208 to 218
90 | COC(=O)c1ccc(C(=O)C(=O)c2ccc3c(c2)C(C)(C)CCC3(C)C)cc1 | 93 to 96
91 | N#Cc1ccc(C=O)c(SCc2ccccc2)c1 | 106 to 109
92 | CCCC(Cl)(Cl)C(NC(=O)c1ccc(Cl)cc1)NC(=N[N+](=O)[O-])Nc1cccnc1 (stereo unspecified) | 198 to 200
93 | COC(=O)C1CCc2cc(C(=O)c3ccccc3)c(OC)cc21 (stereo unspecified) | 126 to 128
94 | Nc1ccc(NCCO)c(S(=O)(=O)CCO)c1 | 130
95 | O=C(O)C1C2CCC(=O)C21 (stereo unspecified) | 110 to 115
96 | Cc1cncc(-c2nc(C(F)(F)F)cn2-c2ccc(S(N)(=O)=O)cc2)c1 | 242 to 243
97 | CC(=O)c1ccc(SC2SCC(O)C(O)C2O)cc1 (stereo unspecified) | 175
98 | C[C@H](N)c1nc2c(C(F)(F)F)cccc2c(O)c1C(=O)Nc1nccs1 | 270
99 | Cn1cc(C=CC(=O)NCN2CCCC2)c([N+](=O)[O-])n1 | 180 to 183
100 | COC(=O)C[C@]1(C(=O)OC)CC(c2ccc(OC)c(OC3CCCC3)c2)=NO1 | 92 to 93
101 | COC(=O)CC[C@@H](C(N)=O)N1Cc2c(OCc3ccc(CN4CCOCC4)cc3)cccc2C1=O | 66 to 68
